Seven compounds from patent US5298488A, “CM-chitin derivatives and use thereof” (Fuji Photo Film Co., Ltd., priority 1990, dated 1994) can be followed below.

No end group written: not given here. CM‑Chitin = carboxymethyl chitin

Experiment [1] concerns fibronectin. As to the kind of experiment: Cell adhesion-inhibitory test against fibronectin (competitive assay, number of adhered cells). Format: cell-based, human. The note with it: endothelium cells of blood vessel, 37° C., one hour, 0 mg/ml control 160. An excerpt: (§1) A method for determining the activity of the CM-chitin derivatives of the present invention for inhibiting adhesion of cells to fibronectin or vitronectin will be described below. The competitive assays used herein have widely been employed tin the field of biochemistry and are detailed in, for instance, "Method in Enzymology", 1981, 82, pp. 803-831; and J. P. KOKAI Nos. Hei 1-309682 and Hei 2-174797.
(§2) Commercially available fibroneotin (derived from human; purchased from Seikaqaku Kogyo K. K.) and vitronectin (derived from human; purchased from Funakoshi Co., Ltd.) each was diluted to 1.0 μ1/ml and 2.0 μ1/ml with PBS (NaH2 PO4 0.005 M+NaCl 0.07 M), 0.5 ml of the resulting diluted solution was dispensed into a plastic plate having 24 wells and incubated at 37° C. overnight to perform coating of the plate. Then bovine serum albumin (BSA 1%) was added followed by incubation at 37° C. for one hour for inhibiting the occurrence of nonspecific adsorption, then washing with PBS in the usual manner and sufficient drainage to give an adsorption plate.
A CM-chitin derivative obtained through lyophilization was diluted with Dulbecco's Modified Eagles Medium (hereunder referred to as "DMEM") to give solutions of the CM-chitin derivative having concentrations of 0, 0.25, 0.5, 1.0 and 1.5 mg/ml respectively. Each of the solutions (0.25 ml) was dispensed to the plate prepared above, 0.25 ml of a suspension of endothelium cells of blood vessel (4×10^6 cells/ml) was added to the plate and incubated at 37° C. for one hour to thus cause cohesion of the cells. The plate was washed three times with DMEM medium to remove non-adhesive cells, then the adhered cells were peeled off with a 0.025% EDTA trypsin solution and stained with a 2% Trypan Blue solution to determine the number of the adhered cells.

In experiment [2] the test system is human plasma rich in platelet. As to the kind of experiment: Platelet coagulation-inhibitory activity in vitro, transmittance by aggregometer. The class given is cell-based. Conditions: 37° C., 3 minutes preincubation; for Platelet Coagulation-Inhibitory Action IC50, ADP Stimulation: ADP stimulation (50 μM ADP solution); for Platelet Coagulation-Inhibitory Action IC50, Collagen Stimulation: collagen stimulation (200 μg/ml collagen solution). As to the method:
The platelet coagulation-inhibitory effect of the CM-chitin derivative of the present invention was assayed, in vitro, using human plasma rich in platelet. The experimental method will be described below.
To fresh human blood, there was added 1/9 volume of a 3.8% sodium citrate solution, the resulting mixture was centrifuged (1000 rpm; for 10 minutes) and the upper layer was separated as a plasma rich in platelet. A lyophilized CM-chitin derivative was dissolved in physiological saline to give a plurality of solutions having various concentrations ranging from 0 to 1.5 mg/ml. Each of the solutions (25 μ1) was added to 200 µl of the plasma, incubated at 37° C. for 3 minutes, then a 50 μM of ADP (adenosine diphosphate) solution or a 200 μg/ml collagen solution was added to determine the extent of coagulation in terms of transmittance determined by an aggregometer.
Rate of Coagulation Inhibition=(1-T/T .)×100%
T . : transmittance observed when a salt of CM-chitin derivative was not added.
T : transmittance observed when a salt of CM-chitin derivative was added.

The subject of experiment [3] is vitronectin. The experiment can be described thus: Cell adhesion-inhibitory test against vitronectin (competitive assay, number of adhered cells). Format: cell-based, human. The note with it: endothelium cells of blood vessel, 37° C., one hour, 0 control 249.
Text: as §1, §2
[…] Each of the solutions (0.25 ml) was dispensed to the plate prepared above, 0.25 ml of a suspension of endothelium cells of blood vessel (4×10^6 cells/ml) was added to the plate and incubated at 37° C. for one hour to thus cause cohesion of the cells. The plate was washed three times with DMEM medium to remove non-adhesive cells, then the adhered cells were peeled off with a 0.025% EDTA trypsin solution and stained with a 2% Trypan Blue solution to determine the number of the adhered cells.

[4] abbreviates: concentration 10 mg/ml (so in the source).
Where [5] appears, read: concentration 50 mg/ml (so in the source).
The mark [6] stands for this setting: concentration 100 mg/ml (so in the source).
Where [7] appears, read: concentration 300 mg/ml (so in the source).

`N=C(N)NCCC[C@H](N)C(=O)NCC(=O)N[C@@H](CC(=O)O)C(=O)O` [ArgGlyAsp, H--(Arg--Gly--Asp)--OH, reference compound]: the “Cell Adhesion-Inhibitory effect Against Fibronectin (number of adhered cells)” value in experiment [1] (concentration 0.5 mg/ml) is reported as 162 cell/well; in experiment [1] (concentration 1.0 mg/ml) it was 141 cell/well; in experiment [1] (concentration 1.5 mg/ml), 83 cell/well; in experiment [1] (concentration .25 mg/ml) it was 157 cell/well. In addition, the “Platelet Coagulation-Inhibitory Action IC50, ADP Stimulation” value in experiment [2] amounted to 27 µg/mL. The “Platelet Coagulation-Inhibitory Action IC50, Collagen Stimulation” value in experiment [2] turned out to be 22 µg/mL. Besides, the “Cell Adhesion-Inhibitory effect Against Vitronectin (number of adhered cells)” value is 171 cell/well in experiment [3] (setting [4]), 132 cell/well in experiment [3] (setting [5]), 104 cell/well in experiment [3] (setting [6]) and 73 cell/well in experiment [3] (setting [7]).
“CM-Chitin Arg-Gly-Asp-Ser (RGDS; also: conjugated to CM-chitin) [CM--chitin derivative-18]”: the “Cell Adhesion-Inhibitory effect Against Fibronectin (number of adhered cells)” value is 101 cell/well in experiment [1] (concentration 0.5 mg/ml), 75 cell/well in experiment [1] (concentration 1.0 mg/ml), 52 cell/well in experiment [1] (concentration 1.5 mg/ml) and 133 cell/well in experiment [1] (concentration .25 mg/ml). The “Platelet Coagulation-Inhibitory Action IC50, ADP Stimulation” value in experiment [2] amounted to 21 µg/mL. In addition, the “Platelet Coagulation-Inhibitory Action IC50, Collagen Stimulation” value in experiment [2] came to 10 µg/mL. Besides, the “Cell Adhesion-Inhibitory effect Against Vitronectin (number of adhered cells)” value came out at 125 cell/well in experiment [3] (setting [4]), 83 cell/well in experiment [3] (setting [5]), 56 cell/well in experiment [3] (setting [6]) and 44 cell/well in experiment [3] (setting [7]).
With “CM-Chitin Gly-Arg-Gly-Asp-Ser (GRGDS; also: conjugated to CM-chitin) [CM--chitin derivative-7]”, the “Cell Adhesion-Inhibitory effect Against Fibronectin (number of adhered cells)” value was 98 cell/well in experiment [1] (concentration 0.5 mg/ml), 84 cell/well in experiment [1] (concentration 1.0 mg/ml), 71 cell/well in experiment [1] (concentration 1.5 mg/ml) and 119 cell/well in experiment [1] (concentration .25 mg/ml). Besides, the “Platelet Coagulation-Inhibitory Action IC50, ADP Stimulation” value in experiment [2] worked out at 30 µg/mL. Also, the “Platelet Coagulation-Inhibitory Action IC50, Collagen Stimulation” value in experiment [2] amounted to 16 µg/mL. Moreover, the “Cell Adhesion-Inhibitory effect Against Vitronectin (number of adhered cells)” value in experiment [3] (setting [4]) worked out at 143 cell/well; in experiment [3] (setting [5]), 85 cell/well; in experiment [3] (setting [6]) it was 79 cell/well; in experiment [3] (setting [7]), 55 cell/well.
As to “CM-Chitin-Arg-Gly-Asp-Ser ({CM‑Chitin}-RGDS) [CM--chitin derivative-1, rate of introduction of Arg-Gly-Asp-Ser fragments about 10%]”, the “Cell Adhesion-Inhibitory effect Against Fibronectin (number of adhered cells)” value in experiment [1] (concentration 0.5 mg/ml) is listed as 106 cell/well; in experiment [1] (concentration 1.0 mg/ml), 79 cell/well; in experiment [1] (concentration 1.5 mg/ml), 69 cell/well; in experiment [1] (concentration .25 mg/ml), 131 cell/well. Moreover, in experiment [2], the “Platelet Coagulation-Inhibitory Action IC50, ADP Stimulation” value was 15 µg/mL. For the same compound, the “Platelet Coagulation-Inhibitory Action IC50, Collagen Stimulation” value in experiment [2] came to 10 µg/mL. Further, the “Cell Adhesion-Inhibitory effect Against Vitronectin (number of adhered cells)” value is reported as 148 cell/well in experiment [3] (setting [4]), 89 cell/well in experiment [3] (setting [5]), 72 cell/well in experiment [3] (setting [6]) and 41 cell/well in experiment [3] (setting [7]).
On to “CM-Chitin-Gly-Arg-Gly-Asp-Ser-Pro [CM--chitin derivative-19]”, for which the “Cell Adhesion-Inhibitory effect Against Fibronectin (number of adhered cells)” value in experiment [1] (concentration 0.5 mg/ml) amounted to 106 cell/well; in experiment [1] (concentration 1.0 mg/ml), 79 cell/well; in experiment [1] (concentration 1.5 mg/ml) it was 56 cell/well; in experiment [1] (concentration .25 mg/ml) it was 127 cell/well. Also, the “Platelet Coagulation-Inhibitory Action IC50, ADP Stimulation” value in experiment [2] amounted to 19 µg/mL. The “Platelet Coagulation-Inhibitory Action IC50, Collagen Stimulation” value in experiment [2] amounted to 5 µg/mL. In addition, the “Cell Adhesion-Inhibitory effect Against Vitronectin (number of adhered cells)” value in experiment [3] (setting [4]) amounted to 130 cell/well; in experiment [3] (setting [5]), 92 cell/well; in experiment [3] (setting [6]), 63 cell/well; in experiment [3] (setting [7]), 39 cell/well.
As to “CM-chitin-Arg-Gly-Asp-Ser-Gly-NH2 ({CM‑Chitin}-RGDSG-NH2; also: conjugated to CM-chitin) [CM--chitin derivative-17]”, the “Cell Adhesion-Inhibitory effect Against Fibronectin (number of adhered cells)” value in experiment [1] (concentration 0.5 mg/ml) is on record as 84 cell/well; in experiment [1] (concentration 1.0 mg/ml), 61 cell/well; in experiment [1] (concentration 1.5 mg/ml), 35 cell/well; in experiment [1] (concentration .25 mg/ml) it was 99 cell/well. For the same compound, the “Platelet Coagulation-Inhibitory Action IC50, ADP Stimulation” value in experiment [2] was 14 µg/mL. In experiment [2], the “Platelet Coagulation-Inhibitory Action IC50, Collagen Stimulation” value was determined as 5 µg/mL. The “Cell Adhesion-Inhibitory effect Against Vitronectin (number of adhered cells)” value in experiment [3] (setting [4]) is reported as 114 cell/well; in experiment [3] (setting [5]) it was 76 cell/well; in experiment [3] (setting [6]), 48 cell/well; in experiment [3] (setting [7]), 33 cell/well.
Consider “Itaconyl Derivative of CM-Chitin Arg-Gly-Asp-Ser (RGDS; also: conjugated to itaconyl CM-chitin) [CM--chitin derivative-5]”, for which the “Cell Adhesion-Inhibitory effect Against Fibronectin (number of adhered cells)” value in experiment [1] (concentration 0.5 mg/ml) is reported as 105 cell/well; in experiment [1] (concentration 1.0 mg/ml), 86 cell/well; in experiment [1] (concentration 1.5 mg/ml), 72 cell/well; in experiment [1] (concentration .25 mg/ml) it was 136 cell/well. The “Platelet Coagulation-Inhibitory Action IC50, ADP Stimulation” value in experiment [2] is 17 µg/mL. In addition, in experiment [2], the “Platelet Coagulation-Inhibitory Action IC50, Collagen Stimulation” value came to 12 µg/mL. Further, the “Cell Adhesion-Inhibitory effect Against Vitronectin (number of adhered cells)” value in experiment [3] (setting [4]) turned out to be 129 cell/well; in experiment [3] (setting [5]) it was 91 cell/well; in experiment [3] (setting [6]) it was 80 cell/well; in experiment [3] (setting [7]), 48 cell/well.
